# Experiments:
# [1] = Baba et al., Gann 69, 1978; cited from earlier work
# [2] = system: Salmonella typhimurium antigen (STA) induced foot swelling; experiment: Delayed Type Hypersensitivity (DTH), 24 h foot swelling; format: in vivo, mouse
# Text: c) DTH model in the mouse
# The effect of 14-O-[4-(beta-D-glucuronyloxy)-3nitrobenzylaminocarbonyl]doxorubicin (prodrug) on inflammation was investigated in a model of delayed type cutaneous reaction (Delayed Type Hypersensitivity, DTH) corresponding to the method described by Collins and Mackaness (J. Immunol. 101: 830-845,1968).
# In this model, mice were immunized with a defined amount of killed Salmonella typhimurium bacteria (109) twice at an interval of one week. Three. weeks after the first immunization a DTH reaction was provoked by intraplantar injection of a Salmonella typhimurium antigen (STA). A local inflammatory infiltrate which was composed of granulocytes, macrophages, lymphocytes and accumulated interstitial fluid developed. The extent of the reaction was measured by the increase in foot swelling 24 hours after provocation of the reaction. The effect of the prodrug on the inflammatory reaction was tested with two treatment schemes. One group received a single intravenous administration of 500 mg/kg prodrug 2 hours after the STA injection, and another group received three injections of, in each case, 300 mg/kg prodrug at times 2, 5 and 8 hours after the STA injection.
# [3] = Acute toxicity in nude mice (LD50, survival on day 14); conditions: mouse, in vivo, iv, nude mice (CD-1, nu/nu), 5 min infusion
# Protocol: To determine the acute toxicity, nude mice (CD-1, nu/nu) were infused on day 0 with various doses of the test substance dissolved in 0.5 ml of 5% glucose solution over a period of 5 minutes. Control groups receive merely 0.5 ml of 5% glucose solution. 5 mice are used per concentration of the test substance. The number of mice surviving on day 14 is determined, and the Litchfield Wilcoxon method is used to determine the LD50.
# [4] = system: human tumor xenografts (ovarian, breast, stomach, lung and bowel carcinomas); experiment: Prodrug activation/monotherapy in human tumor xenografts; format: in vivo, human tumor in nude mouse
# Text: It was possible to show by means of a histochemical test (Murray et al., the journal of histochemistry and cytochemistry 37, 643-652, 1989) for determining. functional human β-glucuronidase that functionally active human .rho.-glucuronidase is present within the necrosis; i.e. cells whose cytoplasmic membrane has already been damaged still contain functionally active β-glucuronidase in the cytoplasm. This human β-glucuronidase which is localized in the necrosis and is not protected by the cytoplasmic membrane brings about the cleavage of the hydrophilic prodrug to the drug in the LoVo tumor.
# [5] = Plasma half-life after i.v. injection, liposomal and free prodrug; format: in vivo, CD1 nu/nu mice
# [6] = system: human colon tumors (LoVo); experiment: Inhibition of growth of human colon tumors (LoVo) growing subcutaneously in the nude mouse; format: in vivo, human tumor in nude mouse; conditions: for T/C: 1 × i.v., d0
# Protocol: The tested human tumors are routinely maintained and passaged in nude mice. The tumors are tested for human characteristics by immunohistochemistry using monoclonal antibodies at each 3rd passage. The tumor is removed under sterile conditions and cut into small pieces of about 5-10 mm^3. One piece of tumor is implanted subcutaneously into the side of each nude mouse. After about 7-14 days, the piece of tumor is adherent to the surrounding tissue, and the tumor size A is determined with the aid of a calliper rule and measurement of two opposite diameters (a, b) by the following formula: […]
# After another measurement of the tumor size carried out at an interval of 3 days, the animals are randomized to the control group and to the groups to be treated (6 animals in each group). Only animals in which a progressive tumor growth was found are used for this. Starting with the day of randomization ([…]), the animals are treated with the test substances in accordance with the scheme indicated below. Twice a week the two tumor diameters are measured for each mouse, and the individual tumor areas are calculated in accordance with the abovementioried formula.
# After completion of the experiment, the relative tumor sizes for each individual animal on the particular measurement day are calculated by the formula: Ar =A(day X) /A(day 0). The median for the treated group (AT) is then related to the median for the relative control tumor size (AC), and T/C%=AT /AC […] is calculated. The statistical significance of the antitumor effect is determined with the aid of the Wilcoxon U test.
# EAE = EAE model; format: in vivo
# Text: Schorlemmer et al., Drugs Exptl. Clin. Res. XVII (10/11) 461-469 (1991)
# adjuvant arthritis = experiment: Adjuvant arthritis in the rat; format: in vivo
# Text: b) Adjuvant arthritis in the rat
# mouse mammary carcinoma = conditions: ten i.v. administrations and glucose acidification; treatment started 24 h after implantation; cited from earlier work
# [7] = butyric acid liberated from prodrugs in vivo; cited from earlier work
compound,measurement,setting,value
"O=c1[nH]cc(F)c(=O)[nH]1 [Compound 5-FU, 5-fluorouracil]",LD50,[1],200 mg/kg
"COc1cccc2c1C(=O)c1c(O)c3c(c(O)c1C2=O)C[C@@](O)(C(=O)COC(=O)NCc1ccc(O[C@@H]2O[C@H](C(=O)O)[C@@H](O)[C@H](O)[C@H]2O)c([N+](=O)[O-])c1)C[C@@H]3O[C@H]1C[C@H](N)[C@H](O)[C@H](C)O1 [Compound 8, 14-O-[4-(Beta-D-glucuronyloxy)-3-nitrobenzylaminocarbonyl]doxorubicin]",24 h foot swelling,"[2]; 300 mg/kg, 3 × i.v. (t = +2, +5, +8 h), marked xx",1.1 ± 1.3
same,24 h foot swelling,"[2]; 500 mg/kg, 1 × i.v. (t = +2 h), mean ± spread, marked x",3.5 ± 3.9
same,effect by comparison with standard therapy,[2]; DTH,superior effect
same,reduction in the inflammatory reaction,[2]; both prodrug treatment schemes,significant reduction in the inflammatory reaction
same,effect compared with ibuprofen,[2]; three administrations of prodrug (300 mg/kg),slightly superior to the standard therapy
same,LD50 at 336 h,[3],> 1500 mg/kg
same,effect of prodrug monotherapy on tumors without significant necrosis,[4]; non-necrotic tumors (data not shown),cannot be treated by prodrug monotherapy
same,endogenous activation by central necrosis,"[4]; ovarian, breast, stomach, lung and bowel carcinoma xenografts",confirmed in a large number of human tumor xenografts
same,half-life,"[5]; mouse, plasma, iv, free prodrug, CD1 nu/nu mice (data not shown)",~20 min
same,increase in plasma half-life after protein preincubation,[5]; preincubation with 50 g/l human serum albumin or human acid alpha-1 glycoprotein,less distinct increase in the plasma half-life
same,T/C,"[6]; 500 mg/kg, listed as Prodrug",40.0%
same,T/C,"[6]; 500 mg/kg, listed as prodrug",~ 40%
same,efficacy compared with fusion protein in combination with prodrug,"[6]; LoVo, prodrug alone",as effective as in the group which received fusion protein in combination with prodrug
same,statistical significance (p) of difference to doxorubicin treatment,"[6]; tumor growth, vs doxorubicin treatment",< 0.05
"CC(OC(=O)OCc1ccc(O[C@@H]2O[C@H](C(=O)O)[C@@H](O)[C@H](O)[C@H]2O)c([N+](=O)[O-])c1)=C(C#N)C(=O)Nc1ccc(C(F)(F)F)cc1 [Compound 22, 4-(β-D-Glucuronyloxy)-3-nitrobenzyl 2-[1-cyano-1-(N-4-trifluoromethylphenyl)carbamoyl]propen-1-yl carbonate]",activity by comparison with the active substance (Leflunomide),EAE,superior activity
same,activity by comparison with the active substance (Leflunomide),adjuvant arthritis,superior activity
"COc1cccc2c1C(=O)c1c(O)c3c(c(O)c1C2=O)C[C@@](O)(C(=O)CO)C[C@@H]3O[C@H]1C[C@H](N)[C@H](O)[C@H](C)O1 [Doxorubicin, doxorubicin, reference compound]",T/C,[6]; 12 mg/kg,78.4%
same,T/C,"[6]; 12 mg/kg, listed as doxorubicin",~ 80%
"O=C(O)[C@H]1O[C@@H](Oc2nc(=O)[nH]cc2F)[C@H](O)[C@@H](O)[C@@H]1O [FUOG, 5-fluorouracil O-.rho.-D-glucuronide]",effect on mouse mammary carcinoma,mouse mammary carcinoma,distinct effect
"CC(C)Cc1ccc(C(C)C(=O)O)cc1 (stereo not shown) [Ibuprofen, ibuprofen, reference compound]",24 h foot swelling,"[2]; 200 mg/kg, 1 × p.o. (t = 0), marked xx",1.7 ± 2.2
CCCC(=O)O [butyric acid],therapeutic effects compared with cisplatin,[7],inferior to those of a standard cytostatic (cisplatin)

# — patent publication US5955100A, “Prodrugs their preparation and use as pharmaceuticals” (priority 1992, dated 1999)
